The record followed here is US12338262B2 (Forward Therapeutics, Inc., priority 2022, dated 2025).

TNF-α, sequence (P01375 77-233 limits assumed): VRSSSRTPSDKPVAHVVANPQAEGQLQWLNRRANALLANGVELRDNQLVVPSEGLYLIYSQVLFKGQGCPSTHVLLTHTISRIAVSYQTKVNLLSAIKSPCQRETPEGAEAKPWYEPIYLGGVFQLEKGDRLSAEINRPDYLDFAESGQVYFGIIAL

The target in this experiment is TNF-α (Homo sapiens, UniProt P01375). The experiment can be described thus: TNF-α Induced HEK Blue Cellular Assay. The class given is cell-based. Particulars: HEK Blue TNFα reporter cells, TNF-α 100 pg/ml, 24 hrs at 37° C., secreted alkaline phosphatase (QUANTI-Blue, 620 nm). As to the method:
TNF-α Induced HEK Bluet Cellular Assay
Test articles were diluted in DMSO and serially diluted into 384 well assay plate (Corning 3765), at final concentrations ranging from […] to 0.5 nM. HEK Blue™ TNFα reporter cells were added at a final density of 10,000 cell per well in assay media [DMEM (Gibco, cat #21063-029), 10% fetal bovine serum (ExcelBio, cat #FND500), 1% Penicillin-Streptomycin (Solarbio, cat #P1400-100]. TNF-α (R&D 210-TA-020/CF) was then added to the assay plate at a final concentration of 100 pg/ml. This plate was then incubated for 24 hrs at 37° C. and 5% CO2. Secreted alkaline phosphatase expression was then measured using QUANTI-Blue™ (Invivogen), according to manufacturer instructions and read on an Envision microplate reader at 620 nm.
Inhibition data for test compound over a range of concentration was plotted as percentage inhibition of the test compound (100%=maximum inhibition). IC50 values were determined after correcting for background [(sample read-mean of low control)/(mean of high control-mean of low control)] where by the low control is DMSO without stimulation and high control is DMSO with stimulation. The IC50 is defined as the concentration of test compound which produces 50% inhibition and was quantified using the 4 parameter logistic equation to fit the data.
Molecule `Cc1nc2cc(F)c(-c3ccc(P(C)(C)=O)nc3)c(F)c2c(N[C@H](C)c2ccccc2F)c1Cl` [Example 72, 3-chloro-6-[6-(dimethylphosphoryl)pyridin-3-yl]-5,7-difluoro-N-[(1R)-1-(2-fluorophenyl)ethyl]-2-methylquinolin-4-amine] showed a half-maximal inhibitory concentration (IC50) of at most 1 µM. As to `CC[P@](C)(=O)c1ccc(-c2nc3c(N[C@H](C)c4cc(C#N)ccc4F)c(Cl)c(C)nc3cc2F)cn1` (single isomer, unassigned) [Example 58], the 50% inhibitory concentration (IC50) is at most 0.1 µM. Regarding `Cc1nc2cc(F)c(-c3ccc(P(C)(C)=O)nc3)nc2c(N[C@H](C)c2cccc(F)c2F)c1C` [Example 133, N-[(1R)-1-(2,3-difluorophenyl)ethyl]-6-[6-(dimethylphosphoryl)pyridin-3-yl]-7-fluoro-2,3-dimethyl-1,5-naphthyridin-4-amine], the IC50 is at most 0.1 µM. `CC[C@H](Nc1c(Cl)c(C)nc2cc(F)c(-c3ccc(P(C)(C)=O)nc3)nc12)c1cc(F)cc(F)c1` [Example 148, 3-chloro-N-[(1S)-1-(3,5-difluorophenyl)propyl]-6-[6-(dimethylphosphoryl)pyridin-3-yl]-7-fluoro-2-methyl-1,5-naphthyridin-4-amine] returned an IC50 of 1 to 10 µM. Consider `CC[C@@H](Nc1c(Cl)c(C)nc2cc(F)c(-c3cnc(P(C)(C)=O)nc3)cc12)c1cccc(F)c1F` [Example 114, (R)-(5-(3-chloro-4-((1-(2,3-difluorophenyl)propyl)amino)-7-fluoro-2-methylquinolin-6-yl)pyrimidin-2-yl)dimethylphosphine oxide], for which the IC50 is at most 0.1 µM. Molecule `CC[C@H](Nc1c(Cl)c(C)nc2cc(F)c(-c3ccc(P(C)(C)=O)nc3)nc12)c1ncccc1F` [Example 68, (S)-(5-(7-chloro-3-fluoro-8-((1-(3-fluoropyridin-2-yl)propyl)amino)-6-methyl-1,5-naphthyridin-2-yl)pyridin-2-yl)dimethylphosphine oxide] showed a half-maximal inhibitory concentration (IC50) of at most 0.1 µM. For the molecule `Cc1nc2cc(F)c(-c3ccc(P(C)(C)=O)nc3)nc2c(N[C@H](C)c2ccc(F)cc2F)c1Cl` [Example 88, 3-chloro-N-[(1R)-1-(2,4-difluorophenyl)ethyl]-6-[6-(dimethylphosphoryl)pyridin-3-yl]-7-fluoro-2-methyl-1,5-naphthyridin-4-amine], the IC50 lay within 10 to 30 µM. As for `CC[C@@H](Nc1c(Cl)c(C)nc2cc(F)c(-c3ccc(OCP(C)(C)=O)nc3)nc12)c1ncccc1F` [Example 108, 3-chloro-6-{6-[(dimethylphosphoryl)methoxy]pyridin-3-yl}-7-fluoro-N-[(1R)-1-(3-fluoropyridin-2-yl)propyl]-2-methyl-1,5-naphthyridin-4-amine], the IC50 was at most 1 µM. `Cc1nc2cc(F)c(-c3ccc(P(C)(C)=O)nc3)nc2c(N[C@H](C)c2ccc(F)c(F)c2)c1Cl` [Example 80, 3-chloro-N-[(1R)-1-(3,4-difluorophenyl)ethyl]-6-[6-(dimethylphosphoryl)pyridin-3-yl]-7-fluoro-2-methyl-1,5-naphthyridin-4-amine] displayed a half-inhibitory concentration (IC50) of at most 1 µM. The result for `Cc1nc2cc(F)c(-c3ccc(P(C)(C)=O)nc3)nc2c(N[C@@H](c2cccc(F)c2F)C(F)F)c1Cl` (single isomer, unassigned) [Example 145] reads 10 to 30 µM. Regarding `CC[C@@H](Nc1c(Cl)c(C)nc2cc(F)c(-c3cnc(P(C)(C)=O)nc3)nc12)c1cc(C#N)ccc1F` [Example 9, 3-[(1R)-1-({3-chloro-6-[2-(dimethylphosphoryl)pyrimidin-5-yl]-7-fluoro-2-methyl-1,5-naphthyridin-4-yl}amino)propyl]-4-fluorobenzonitrile], the 50% inhibitory concentration (IC50) was at most 0.1 µM. Then `Cc1nc2cc(F)c(-c3ccc(P4(=O)CCOCC4)nc3)cc2c(N[C@H](C)c2cccc(F)c2F)c1Cl` [Example 103, 4-[5-(3-chloro-4-{[(1R)-1-(2,3-difluorophenyl)ethyl]amino}-7-fluoro-2-methylquinolin-6-yl)pyridin-2-yl]-1,4lambda5-oxaphosphinan-4-one], with 10 to 30 µM; and `CC[C@H](Nc1c(Cl)c(C)nc2cc(F)c(-c3cnc(P(C)(C)=O)nc3)nc12)c1ncccc1F` [Example 132, 3-chloro-6-[2-(dimethylphosphoryl)pyrimidin-5-yl]-7-fluoro-N-[(1S)-1-(3-fluoropyridin-2-yl)propyl]-2-methyl-1,5-naphthyridin-4-amine], with at most 1 µM; and `Cc1nc2ccc(-c3ccc(P(C)(C)=O)nc3)nc2c(N[C@H](C)c2cc(C#N)ccc2F)c1Cl` [Example 40, 3-[(1R)-1-({3-chloro-6-[6-(dimethylphosphoryl)pyridin-3-yl]-2-methyl-1,5-naphthyridin-4-yl}amino)ethyl]-4-fluorobenzonitrile], with at most 0.1 µM. In turn, `Cc1nc2cc(F)c(-c3ccc(P(C)(C)=O)nc3)cc2c(N[C@H](C)c2ccccc2F)c1Cl` [Example 19, 3-chloro-6-[6-(dimethylphosphoryl)pyridin-3-yl]-7-fluoro-N-[(1R)-1-(2-fluorophenyl)ethyl]-2-methylquinolin-4-amine] showed an IC50 of at most 0.1 µM. `Cc1nc2cc(F)c(-c3ccc(P(C)(C)=O)nc3)nc2c(N[C@H](C)c2ccccc2Cl)c1Cl` [Example 87, 3-chloro-N-[(1R)-1-(2-chlorophenyl)ethyl]-6-[6-(dimethylphosphoryl)pyridin-3-yl]-7-fluoro-2-methyl-1,5-naphthyridin-4-amine] displayed an IC50 of 1 to 10 µM. The molecule `Cc1nc2cc(F)c(-c3cnc(OCP(C)(C)=O)nc3)nc2c(N[C@H](C)c2cccc(F)c2F)c1Cl` [Example 124, 3-chloro-N-[(1R)-1-(2,3-difluorophenyl)ethyl]-6-{2-[(dimethylphosphoryl)methoxy]pyrimidin-5-yl}-7-fluoro-2-methyl-1,5-naphthyridin-4-amine] had a half-inhibitory concentration (IC50) of at most 1 µM. The molecule `Cc1nc2cc(F)c(-c3ccc(P(C)(C)=O)nc3)nc2c(N[C@H](C)c2cc(F)ccc2F)c1Cl` [Example 53, 3-chloro-N-[(1R)-1-(2,5-difluorophenyl)ethyl]-6-[6-(dimethylphosphoryl)pyridin-3-yl]-7-fluoro-2-methyl-1,5-naphthyridin-4-amine] showed a 50% inhibitory concentration (IC50) of at most 1 µM.

`Cc1nc2cc(F)c(-c3ccc(P(C)(C)=O)nc3)nc2c(N[C@@H](C)c2cccc(F)c2F)c1Cl` [Example 45, 3-chloro-N-[(1S)-1-(2,3-difluorophenyl)ethyl]-6-[6-(dimethylphosphoryl)pyridin-3-yl]-7-fluoro-2-methyl-1,5-naphthyridin-4-amine] gave a half-inhibitory concentration (IC50) of at most 0.1 µM.

Molecule `CC[C@@H](Nc1c(Cl)c(C)nc2cc(F)c(-c3ccc(P(C)(C)=O)c(F)c3)nc12)c1ncccc1F` [Example 4, 3-chloro-6-[4-(dimethylphosphoryl)-3-fluorophenyl]-7-fluoro-N-[(1R)-1-(3-fluoropyridin-2-yl)propyl]-2-methyl-1,5-naphthyridin-4-amine] registered a 50% inhibitory concentration (IC50) of at most 1 µM. `CC[C@H](Nc1c(Cl)c(C)nc2cc(F)c(-c3ccc(P(C)(C)=O)nc3)nc12)c1cccc(F)c1F` [Example 96, (S)-(5-(7-chloro-8-((1-(2,3-difluorophenyl)propyl)amino)-3-fluoro-6-methyl-1,5-naphthyridin-2-yl)pyridin-2-yl)dimethylphosphine oxide] gave an IC50 of at most 0.1 µM.

As for `Cc1nc2cc(F)c(-c3ccc(P(C)(C)=O)nc3)nc2c(N[C@H](C)c2cccc(Cl)c2)c1Cl` [Example 91, 3-chloro-N-[(1R)-1-(3-chlorophenyl)ethyl]-6-[6-(dimethylphosphoryl)pyridin-3-yl]-7-fluoro-2-methyl-1,5-naphthyridin-4-amine], the half-maximal inhibitory concentration (IC50) was at most 0.1 µM. Molecule `CC[C@@H](Nc1c(Cl)c(C)nc2cc(F)c(-c3ccc(P(C)(C)=O)nc3)nc12)c1cccc(F)c1F` [Example 95, (R)-(5-(7-chloro-8-((1-(2,3-difluorophenyl)propyl)amino)-3-fluoro-6-methyl-1,5-naphthyridin-2-yl)pyridin-2-yl)dimethylphosphine oxide] displayed a half-inhibitory concentration (IC50) of at most 0.1 µM. As to `Cc1nc2cc(F)c(-c3ccc(P(C)(C)=O)nc3)nc2c(NC(c2ncccc2F)C2CC2)c1Cl` (stereo not drawn) [Example 136, 3-chloro-N-[cyclopropyl(3-fluoropyridin-2-yl)methyl]-6-[6-(dimethylphosphoryl)pyridin-3-yl]-7-fluoro-2-methyl-1,5-naphthyridin-4-amine], the half-inhibitory concentration (IC50) was at most 1 µM. `Cc1nc2cc(F)c(-c3ccc(OCP(C)(C)=O)nc3)nc2c(N[C@H](C)c2ccccc2F)c1Cl` [Example 56, 3-chloro-6-{6-[(dimethylphosphoryl)methoxy]pyridin-3-yl}-7-fluoro-N-[(1R)-1-(2-fluorophenyl)ethyl]-2-methyl-1,5-naphthyridin-4-amine] yielded an IC50 of at most 0.1 µM. Take `CC[C@H](Nc1c(Cl)c(C)nc2cc(F)c(-c3cnc(P(C)(C)=O)nc3)nc12)c1cccc(F)c1F` [Example 127, 3-chloro-N-[(1S)-1-(2,3-difluorophenyl)propyl]-6-[2-(dimethylphosphoryl)pyrimidin-5-yl]-7-fluoro-2-methyl-1,5-naphthyridin-4-amine]: the IC50 was at most 1 µM. `Cc1nc2cc(F)c(-c3cnc(P(C)(C)=O)nc3)nc2c(N[C@H](c2cc(C#N)ccc2F)C(F)F)c1Cl` [Example 38, (R)-3-(1-((3-chloro-6-(2-(dimethylphosphoryl)pyrimidin-5-yl)-7-fluoro-2-methyl-1,5-naphthyridin-4-yl)amino)-2,2-difluoroethyl)-4-fluorobenzonitrile] gave an IC50 of at most 1 µM.
